# Measurements from patent EP0462621A2, “Use of particular compounds for manufacture of pharmaceutical formulations for treatment against various parasites, mycoplasmas, other indications and other infections” (Prendergast, Patrick Thomas, priority 1990, dated 1991).
# Like-named read-outs stand apart in the source and are kept apart here.
# What was measured:
# H9-HIV-1 cells = test: Cytotoxicity in persistently infected H9-HIV-1 cells, viable cell number; format: cell-based, human; details: 30 u.M and lower; up to 30 days
# L donovani [1] = test: Leishmania promastigote (PRO) in-vitro screen; format: cell-based; details: Ld.
# Description: (§1) Following initial infection, the amastigote is the only form present in the mammalian host, surviving and dividing in various macrophage populations. Differences between the promastigote and amastigote in form and habitat are not matched by known biochemical dissimilarities. However, the drug susceptibility of the cultured promastigote, used in many early chemotherapy screens, contrasts markedly with that of the amastigote (see Table 1, below), most importantly to the clinically used pentavalent antimonials - sodium stibogluconate (Pentostam) and meglumine antimoniate (Glucantime).
# (§2) Amastigotes of Leishmania can be cultivated in a wide range of mammalian cells, some of which may be used in in-vitro screens. These include (1) a Sticker dog sarcoma (fibroblast) cell line, (2) transformed rodent macrophage cell lines, (3) primary isolated mouse peritoneal macrophages (MP mo), and (4) human monocyte-derived macrophages (HM mo). The methods are similar for all models. Amastigote or promastigote infected cells are maintained in a medium containing the drug for 4-7 days, at 37 C for L. donovani and 33-35 C for L. major and L. mexicana. Drug activity is then assessed by counting (I) the number of infected host cells and/or (II) the number of amastigotes/100 host cells.
# (§3) In-vitro and in-vivo models were used to test activities of a selection of many compounds. Those activities are summarized in Tables 1-3, showing variation between systems and species. Activities measured in the MP mo and HM mo models have shown the best correlation with results obtained in hamster and mouse models.
# L major/L mexicana [2] = test: Leishmania promastigote (PRO) in-vitro screen; format: cell-based; details: Lm.
# Description: as §1, §2, §3
# RH strain T. gondii = test: Growth of Toxoplasma gondii in human foreskin fibroblasts, tritiated uracil incorporation; format: cell-based; details: various concentrations; Figure 24
# Procedure: An experiment was conducted to evaluate the in-vitro effects of IPA on Toxoplasma Gondii by infecting human foreskin fibroblast monolayers (four replicates per condition) with RH strain T. gondii in the presence of various concentrations of IPA dissolved in Eagle's minimum essential medium without fetal bovine serum. After an initial four hour period of infection, the media and any T. gondii which had not entered the host cells were removed and replaced by media containing 1 u.M tritiated uracil per milliter, and incubated overnight. The mono-layers were lysed, nucleic acids precipitated by trichloroacetic acid, and the precipitates recovered on glass fiber filters. Radioactivity on the filters was measured in a Beckman scintillation spectrometer. Controls included fibroblast monolayers without T. gondii (cell control) and fibroblast monolayers infected by the same inoculum of T. gondii as the IPA treated monolayers (Tg control). The units of uracil incorporation are somewhat lower here because of the lower inoculum of T. gondii.
# L donovani [3] = test: Amastigotes (AM) in mouse or human macrophages (mos), in-vitro; format: cell-based; details: Ld., Amastigote
# Description: as §2, §3
# L major/L mexicana [4] = test: as above; format: cell-based; details: Lm., Amastigote
# Description: as §2, §3
# HIV-1 = test: Experiment la(b): H9 cells, HIV-1, antibody assay; format: cell-based; details: Human immunodeficiency virus 1
# Procedure: Fresh macrophage cultures were obtained by incubation of mononuclear cells obtained from a leukopak directly in the wells of a microtiter plate having 6 wells per row. After removal of non-adherent cells, each row of the adherent macrophages was infected with 10-fold serial dilutions of HIV-I, with the use of polybrene to enhance uptake of the virus. After one to two hours, the virus inoculum was removed and replaced with fresh normal growth medium. The fresh medium for each row contained a particular concentration of AZT, dideoxy cytidine (ddC), or compound la, as indicated by the left-hand column of Table la(a). The first row of wells acted as a control, and to it was added fresh medium containing none of the three drugs. Medium levels were maintained for two to four weeks to allow replication of the virus to take place, with at least one complete fluid change to remove residual virus inoculum. The contents of each well were then tested for the level of HIV p24 antigen present using a commercially available antigen capture kit employing a radio-immunoassay which can detect as little as 10'^9gm of p24 present in a sample. The above procedure was done in duplicate runs.
# A procedure similar to that followed in Experiment la(a) was followed using infected H9 cells, H9 cells being a permanent human T-cell line.
# A procedure similar to that followed in Experiment la(a) was followed using infected H9 cells, being a permanent human T-cell line.
# [5] = test system: T.b. brucei, T.b. gambiense and T.b. rhodesiense; test: African trypanosomiasis mouse model, in-vivo
# Procedure: Primary screening for new trypanocides has made extensive use of rodent systems, in which host survival time is a simple indicator of drug activity. In-vitro screens have used a variety of trypomastigote types (see Table 3, below). […] Most early in-vitro screens employed a short test in which bloodstream trypomastigotes were isolated from an infected rodent and maintained for up to 24 h in a simple drug-containing media. Two significant modifications of this technique include maintaining isolated bloodstream trypomastigotes in drug-containing media for 3-4 hours at 37° C in micro-titre plates and their subsequent viability assessed by the uptake of radiolabelled precursors or motility and infectivity to mice.
# as §3
# HIV-1 and CAEV = test: Inhibition of virus replication, summary over viruses and cell lines of Figure 15; format: cell-based; details: depending upon the virus and cell line
# Procedure: Selected results presented in Tables la(a), la(b) and la(c) are plotted in Figure 15.
# It is apparent from Figure 15 that IPA appears to inhibit the replication of HIV-1 and CAEV at concentrations ranging from 3 to 30 µM and above. Without appropriate toxicity data it is not possible to calculate the therapeutic index at the various drug concentrations. Nevertheless, the IC50 can be seen to vary between approximately 2-6 u.M, depending upon the virus and cell line, and the ICso varies between 3-30 µM in these experiments.
# T. cruzi = T. cruzi mouse model, in-vivo
# Description: as §3
smiles,measurement,setting,value
"CC(C)=CCNc1ncnc2c1ncn2[C@@H]1O[C@H](CO)[C@@H](O)[C@H]1O [IPA, N^6-(Δ^2-isopentenyl) adenosine]","cytotoxicity, viable cell number",H9-HIV-1 cells,No cytotoxicity
same,"Activity, PRO",L donovani [1],+ +
same,"Activity, PRO",L major/L mexicana [2],+
same,effect on the growth of T. gondii,RH strain T. gondii,inhibitory effect
same,"Activity, AM in mouse or human mos",L donovani [3],+ +
same,"Activity, AM in mouse or human mos",L major/L mexicana [4],+ +
same,IC50,"HIV-1; H9, HIV-1, as read from Figure 15, read-out: IC50",2 µM
same,IC90,"HIV-1; H9, HIV-1, as read from Figure 15, read-out: IC90",3 µM
same,IC50,"HIV-1; H9 Cells, from Figures 16 and 17, read-out: IC50 - The concentration of IPA which inhibits the replication of HIV-1 by 50%",6 µM
same,IC90,"HIV-1; H9 Cells, from Figures 16 and 17, read-out: IC90 - The concentration of IPA which inhibits the replication of HIV-1 by 90%",10 µM
same,"activity, mouse model",[5],+ +
same,ICso,HIV-1 and CAEV,3 to 30 µM
same,IC50,HIV-1 and CAEV; approximately,2 to 6 µM
same,"activity, mouse model",T. cruzi; T. cruzi strain Sonya,+
same,"activity, mouse model",T. cruzi; T. cruzi strain Y,++
